According to publication PMC5483892 (Journal of Medicinal Chemistry, 2017):

Target: ATX (full length human β form with a C-terminal 6-His tag) (Homo sapiens, UniProt Q13822)
Format: biochemical
Conditions: for LE (ligand efficiency): LE = −RTpKi/nb heavy atoms; for LE (ligand efficiency) / LLE (lipophilic ligand efficiency): from concentration response pIC50; for LLE (lipophilic ligand efficiency): LLE = pIC50 – cLogP; for affinities within fold of each other: BAL hits 16, 19 and 22 compared with each other

Structure (SMILES)	LE (ligand efficiency)	LLE (lipophilic ligand efficiency)	affinities within fold of each other	increase in potency (relative to phenyl boronic acid 14)	more potent than 18 (relative to 18)
COc1cc(COc2ccc(B(O)O)cc2Cl)cc(OC)c1 [Compound 22]	0.40	3.4	≤ 3 fold	–	–
Oc1ccc(-n2ccnc2)cc1 [Compound 10]	0.37	2.5	–	–	–
OB(O)c1ccc2cc[nH]c2c1 [Compound 1]	0.65	4.4	–	–	–
OB(O)c1ccccc1 [Compound 14, phenyl boronic acid]	0.76	3.7	–	–	–
OCc1cccc(B(O)O)c1 [Compound 18]	–	3.6	–	–	–
Oc1ccc2nonc2c1 [Compound 4]	0.50	3.5	–	–	–
COc1ccccc1B(O)O [Compound 15]	0.67	3.8	–	–	–
OB(O)c1ccc(O)cc1 [Compound 9]	0.68	3.7	–	–	–
O=C(O)c1ccc2cc[nH]c2c1 [Compound 2]	0.35	2.8	–	–	–
Nc1cccc(-c2nnc[nH]2)c1 [Compound 8]	0.41	3.4	–	–	–

Second part, the molecule after the results:

LE (ligand efficiency)	LLE (lipophilic ligand efficiency)	affinities within fold of each other	increase in potency (relative to phenyl boronic acid 14)	more potent than 18 (relative to 18)	Structure (SMILES)
0.55	4.9	–	–	–	CS(=O)(=O)c1ccc(B(O)O)cc1 [Compound 11]
0.58	2.9	–	–	–	COc1cccc(B(O)O)c1 [Compound 17]
0.40	2.9	–	–	–	CS(=O)(=O)c1ccc(O)cc1 [Compound 12]
0.45	3.5	≤ 3 fold	10 fold	–	OB(O)c1ccccc1OCc1cccc(Cl)c1 [Compound 16]
0.41	3.3	≤ 3 fold	–	25 fold	COCCc1ccc(OCc2cccc(B(O)O)c2)cc1 [Compound 19]
0.58	–	–	–	–	N#Cc1cccc(B(O)O)c1 [Compound 26]
0.66	3.6	–	–	–	COc1ccc(B(O)O)cc1 [Compound 13]
0.66	–	–	–	–	N#Cc1ccc(B(O)O)cc1 [Compound 21]
0.57	3.8	–	–	–	OB(O)c1ccc2nonc2c1 [Compound 3]
0.68	3.7	–	–	–	OB(O)c1cccc(O)c1 [Compound 5]
0.44	2.8	–	–	–	NCc1cccc(O)c1 [Compound 6]
